The values that follow come from patent publication US11167040B2, “Conjugates comprising peptide groups and methods related thereto” (priority 2015, dated 2021).

Square brackets hold non-standard residues; d marks the D form. Peptide text beside a SMILES is read from it. Dolaproine = CO[C@@H]([C@@H]1CCCN1)[C@@H](C)C(=O)O; Dil = CC[C@H](C)[C@H](NC)[C@@H](CC(=O)O)OC; NMeV = CN[C@H](C(=O)O)C(C)C

Test [1] has as its system MCF-7 (HER2 negative to normal). The test is described as follows: Cytotoxicity of anti-HER2 ADCs, SRB assay. It is filed as cell-based, human. Particulars: Table 12, hybrid ADCs. The method, then:
(§1) Commercially available human breast cancer cell lines MCF-7 (HER2 negative to normal), OE-19 (HER2 positive), NCI-N87 (HER2 positive), SK-OV-3 (HER2 positive), JIMT-1 (HER2 positive), and SK-BR-3 (HER2 positive) were used. The cell lines were cultured according to recommended specifications provided with the commercially available cell lines.
(§2) Anti-proliferation activities of the antibodies, drugs, and conjugates with regard to the cancer cell lines were measured. The cells were plated in 96-well, tissue culture plates at 1×10^4 cells per well. After 24 hour incubation, the antibodies, drugs, and conjugates were added in various concentrations. The number of viable cells after 72 hours were counted using SRB assay. Absorbance was measured at 540 nm using SpectraMax 190 (Molecular Devices, USA).
In general terms: The SRB assay estimates cell density from bound dye.

In the next test the test system is SK-OV-3 (HER2 positive). The experiment in a line: Cytotoxicity of anti-HER2 ADCs, SRB assay. The class given is cell-based, human. The note with it: Table 12, hybrid ADCs. As for the experimental part:
as §1, §2

The test system of a further test is NCI-N87 (HER2 positive). The test is described as follows: Cytotoxicity of anti-HER2 ADCs, SRB assay. Particulars: Table 12, hybrid ADCs. The class given is cell-based, human. As for the experimental part: as §1, §2
Another test concerns SK-BR3 cells. The experiment in a line: Plasma stability of ADCs: human plasma incubation, then SRB cytotoxicity test. The class given is cell-based. Particulars: Table 18; human plasma 0 h; SK-BR3 cells 72 hr; read-out: Plasma stability of Herceptin based ADCs (nM), Plasma incubation time 0 h.
Test [2] relates to A431 cells, which express high levels of EGFR. The test is described as follows: Cytotoxicity of Erbitux based ADCs, SRB. It is filed as cell-based. The note with it: 72 hours; read-out: IC50 against A431 cells. The method, then:
(§3) A431 cells, which express high levels of EGFR, and MCF-7 cells, which express low levels of EGFR, were plated at about 1000 cells per well in a 96-well plate in 100 μL of media. HCC-827 cells, which express an intermediate level of EGFR were plated at about 5000 cells per well in a 96-well plate in 100 μL of media. […] The cells were incubated for 72 hours and then fixed for 1 hour at 4° C. after adding 100 μL of ice-cold 10% trichloroacetic acid to each well.

The test system of test [3] is MCF-7 cells, which express low levels of EGFR. The test is described as follows: Cytotoxicity of Erbitux based ADCs, SRB. It is filed as cell-based. Particulars: 72 hours; read-out: IC50 against MCF-7 cells. The method, then: as §3
Test [4] concerns HCC-827 cells, which express an intermediate level of EGFR. The test is described as follows: Cytotoxicity of Erbitux based ADCs, SRB. The class given is cell-based. The note with it: 72 hours; read-out: IC50 against HCC-827 cells. The method, then: as §3

Turning to `CC[C@H](C)[C@@H]([C@@H](CC(=O)N1CCC[C@H]1[C@H](OC)[C@@H](C)C(=O)N[C@@H](Cc1ccccc1)C(=O)OC)OC)N(C)C(=O)[C@@H](NC(=O)[C@@H](NC)C(C)C)C(C)C` [MMAF-OMe, monomethyl auristatin F methyl ester] (H-[NMeV]V[Dil][Dolaproine]F-OMe), the IC50 in test [1] came to 0.6 nM; in the test with SK-OV-3 (HER2 positive), 0.78 nM; in the test with NCI-N87 (HER2 positive), 0.49 nM; in the test on SK-BR3 cells, 0.48 nM; in test [2], 1.11 nM; in test [3] it was 1.81 nM. Also, the IC50 in test [4] is 1.99 nM.
